Experimental findings from US12139488B2, “Pyrido[3,2-d]pyrimidine compounds uses thereof for treating a proliferative disease” (Universite de Montreal, priority 2021, dated 2024) are described below.

A value given as a limit tells only on which side of the number the result lay.

In general, IC50 refers to the concentration at which inhibition is half-maximal. Read a high IC50 as weaker potency in that assay.

The subject of the assay is pERK in HCT-116 cells (KRAS G13D). In words: Phospho-ERK inhibition (AlphaLISA SureFire Ultra p-ERK 1/2), HCT116. The assay is classed as cell-based, human. As for the experimental part: All cancer cell lines (A375, A101D, A2058, RKO, HT29 SK-MEL 30, IPC298, HepG2, HCT-116, Lovo, SWV620, SW480, NCI-H358, NCI-H2122, Calu-6, NCIH2087, NCIH1755, NCIH1666 and Mewo) were obtained from ATCC and cultured in RPMI-1640 medium (Gibco) supplemented with 5% heat inactivated fetal bovine serum (FBS, Wisent) at 37° C. under 5% CO2. Cells were maintained in T175 flasks (Greiner). They were passaged by removing the culture medium, washing once in 10 mL of room temperature Phosphate Buffered Saline (PBS; Wisent) and incubating at 37° C. with 2 mL of 0.05% Trypsin (Thermo-Fisher). Trypsin was then inactivated by adding complete growth medium and the cells were then replated in a T175 culture dish at the appropriate dilution. All cell lines were routinely tested for mycoplasma contamination. Tissue type and mutational status of each cell line can be found in Table B.
AlphaLISA® SureFire® Ultra™ p-ERK 1/2 (Thr202/Tyr204) analysis was conducted on cells plated in 100 μL of complete RPMI-1640 growth medium in 96-well flat-bottomed transparent dishes (Costar) at a density indicated in Table C. Cells were maintained overnight at 37° C. under 5% CO2 before treatment with compounds' dilution series for one hour. The cell density in cells/cm^2 corresponds to cell number divided by the area of one well of a 96-well plate ([…]).
In a dilution series 100 μL/well of test substance dilution prepared in complete RPMI-1640 growth media was added to the cells. The dilution series is selected so that ten concentrations cover a range from 10 μM to 0.33 nM. If necessary the initial concentration of 10 μM is increased to 100 μM or lowered to 1 μM (as in the case of A375 and H1666 cells, which are generally more sensitive to the compounds) and further dilution is carried out accordingly. The final concentration of DMSO in the assay is set at 0.5%.
After treatment, media was removed and cells were lysed in 50 μL of 1× AlphaScreen Ultra Lysis Buffer (Perkin Elmer). The AlphaLISA® SureFire® Ultra™ p-ERK 1/2 (Thr202/Tyr2O4) (PerkinElmer) reactions were performed with 5 μL of cell lysate according to the manufacturer's specifications in 384-well proxyplates (Perkin Elmer) followed by overnight incubation of the reactions at room temperature in a humidified chamber. After completion of the reactions, the signals were recorded on an EnVision plate reader (Perkin Elmer) using built in AlphaLISA® settings.
The effect of each compound dilution on the pERK signal was expressed in % inhibition and calculated as follows. An internal 100% inhibition control ([…] trametinib, cat #HY-10999; MedChem Express; CAS #871700-17-3) was included in each plate and used as a measure of pERK background. First, the value obtained for trametinib was subtracted from each data point. The average of DMSO (vehicle) controls (set as 0% inhibition) was established and used to calculate % inhibition: % inhibition=100*(1-((pERK signalcompound)/(pERK signalDMSO)))
The ability of each compound to inhibit pERK signal was expressed as an IC50 value obtained by plotting the inhibition values for each data point of a dilution series and fitting the obtained curves using a log(agonist) versus response-variable slope (four parameters) function using GraphPadPrism (V7.0) or Dotmatics Screening Ultra platform.
When present, paradoxical pERK induction is inferred from the negative % inhibition values observed in the pERK IC50 curves of a compound.
A general note: In Alpha technology, singlet oxygen from a donor bead excites a nearby acceptor bead.

Where [1] appears, read: HCT116 cells, class symbol before the bracket.

Turning to `Cc1c(F)cccc1S(=O)(=O)Nc1ccc(F)c(Nc2ncnc3ccc(-n4cc(S(=O)(=O)N5CCC(N(C)C)CC5)c5ccccc54)nc23)c1F` [Ex 395], the IC50 (HCT116 cells, class symbol) is under 500 nM.

`CN1CCC(S(=O)(=O)c2cn(-c3ccc4ncnc(Nc5c(F)ccc(NS(=O)(=O)c6cccc(Cl)c6Cl)c5F)c4n3)c3ccccc23)CC1` [Example 467] had an IC50 (HCT116 cells, class symbol) of under 500 nM. `CC(C)(CN1CCOCC1)S(=O)(=O)c1cn(-c2ccc3ncnc(Nc4c(F)ccc(NS(=O)(=O)c5cccc(Cl)c5Cl)c4F)c3n2)c2ccccc12` [Example 457] gave an IC50 (HCT116 cells, class symbol) of under 500 nM.

Compound `O=S(=O)(Nc1ccc(F)c(Nc2ncnc3ccc(-n4cnc5c(N6CC[C@@H](O)C6)nccc54)nc23)c1F)c1cccc(Cl)c1Cl` [Example 512] registered an IC50 (HCT116 cells, class symbol) of 1000 to 10000 nM. For `Cc1c(F)cccc1S(=O)(=O)Nc1ccc(F)c(Nc2ncnc3ccc(-n4cnc5c(N(CCCO)CCCO)cccc54)nc23)c1F` [Example 375], the IC50 (HCT116 cells, class symbol) was under 500 nM. As for `O=S(=O)(Nc1ccc(F)c(Nc2ncnc3ccc(-n4cnc5c(CN6CCOCC6)cccc54)nc23)c1F)c1ccccc1Cl` [Ex 220], for the setting “HCT116 cells, Ymin in brackets”, the “HCT116 pERK Ymin %” value is −1.7%. For the same compound, the IC50 under setting [1] was in the range of 500 to 1000 nM. Turning to `Cc1c(F)cccc1S(=O)(=O)Nc1ccc(F)c(Nc2ncnc3ccc(-n4ncc5c4CN(CC(N)=O)CC5)nc23)c1F` [Example 531], the IC50 (HCT116 cells, class symbol) lay in the range of 1000 to 10000 nM.

Regarding `C[C@@H]1CN(C)C[C@H](C)N1S(=O)(=O)c1cn(-c2ccc3ncnc(Nc4c(F)ccc(NS(=O)(=O)c5cccc(Cl)c5Cl)c4F)c3n2)c2ccccc12` [Ex 459], the IC50 (HCT116 cells, class symbol) was under 500 nM.

`O=S(=O)(Nc1ccc(F)c(Nc2ncnc3ccc(-n4cnc5c(CCO)cccc54)nc23)c1F)c1cccc(Cl)c1Cl` [Example 556] showed an IC50 (HCT116 cells, class symbol) of under 500 nM. As to `O=S(=O)(Nc1ccc(F)c(Nc2ncnc3ccc(-c4cscn4)nc23)c1F)c1cccc(Cl)c1Cl` [Example 536], where the note is “HCT116 cells, class symbol”, the IC50 lay in the range of 500 to 1000 nM.

As to `O=S(=O)(Nc1ccc(F)c(Nc2ncnc3ccc(-n4cnc5c(CN6CCCCC6)cccc54)nc23)c1F)c1ccccc1Cl` [Ex 228], where the note is “HCT116 cells, Ymin in brackets”, the “HCT116 pERK Ymin %” value is 2.0%. Further, the IC50 under setting [1] was 500 to 1000 nM.

In turn, `CC(=O)NCCN1CCCc2nn(-c3ccc4ncnc(Nc5c(F)ccc(NS(=O)(=O)c6cccc(F)c6C)c5F)c4n3)cc21` [Example 383] registered an IC50 (HCT116 cells, class symbol) of 1000 to 10000 nM. The same measure, in the same setting: with `N#CC1(c2cccc3c2ncn3-c2ccc3ncnc(Nc4c(F)ccc(NS(=O)(=O)c5cccc(Cl)c5Cl)c4F)c3n2)CC1` [Example 552] the figure was under 500 nM; with `Nc1nccc2c1ncn2-c1ccc2ncnc(Nc3c(F)ccc(NS(=O)(=O)c4cccc(Cl)c4Cl)c3F)c2n1` [Example 348], under 500 nM; with `CC(=O)c1cn(-c2ccc3ncnc(Nc4c(F)ccc(NS(=O)(=O)c5cccc(Cl)c5Cl)c4F)c3n2)c2ccccc12` [Ex 464], 1000 to 10000 nM.

Regarding `O=S(=O)(Nc1ccc(F)c(Nc2ncnc3ccc(-n4cnc5c(CN6CCNCC6)cccc54)nc23)c1F)c1ccccc1Cl` [Ex 230], the “HCT116 pERK Ymin %” value (HCT116 cells, Ymin in brackets) is −3%. Under setting [1], the IC50 lay in the range of 1000 to 10000 nM. In the case of `CCOc1nccc2c1ncn2-c1ccc2ncnc(Nc3c(F)ccc(NS(=O)(=O)c4cccc(Cl)c4Cl)c3F)c2n1` [Example 513], the half-maximal inhibitory concentration (IC50) (HCT116 cells, class symbol) was 500 to 1000 nM. Consider `CC1(O)CCN(S(=O)(=O)c2cn(-c3ccc4ncnc(Nc5c(F)ccc(NS(=O)(=O)c6cccc(Cl)c6Cl)c5F)c4n3)c3ccccc23)CC1` [Ex 458], for which the IC50 (HCT116 cells, class symbol) was under 500 nM. `O=S(=O)(Nc1ccc(F)c(Nc2ncnc3ccc(-n4cc(S(=O)(=O)N5CCN(CCO)CC5)c5ccccc54)nc23)c1F)c1cccc(Cl)c1Cl` [Ex 389] displayed an IC50 (HCT116 cells, class symbol) of under 500 nM.

On to `CCN1CCN(S(=O)(=O)c2cn(-c3ccc4ncnc(Nc5c(F)ccc(NS(=O)(=O)c6cccc(F)c6C)c5F)c4n3)c3ccccc23)CC1` [Ex 396], for which the IC50 (HCT116 cells, class symbol) was under 500 nM. In turn, `Cc1cn(-c2ccc3ncnc(Nc4c(F)ccc(NS(=O)(=O)c5cccc(Cl)c5Cl)c4F)c3n2)cn1` [Example 553] gave an IC50 (HCT116 cells, class symbol) of under 500 nM. For `COCCCN(CCCOC)c1cccc2c1ncn2-c1ccc2ncnc(Nc3c(F)ccc(NS(=O)(=O)c4cccc(F)c4C)c3F)c2n1` [Example 384], the IC50 (HCT116 cells, class symbol) is 1000 to 10000 nM.

Turning to `CC(=O)N1CCCc2nn(-c3ccc4ncnc(Nc5c(F)ccc(NS(=O)(=O)c6cccc(F)c6C)c5F)c4n3)cc21` [Example 357], the IC50 (HCT116 cells, class symbol) was in the range of 500 to 1000 nM. Consider `Cc1c(F)cccc1S(=O)(=O)Nc1ccc(F)c(Nc2ncnc3ccc(-n4cnc(CCC#N)c4)nc23)c1F` [Example 347], for which the IC50 (HCT116 cells, class symbol) was under 500 nM. On to `O=C(c1cn(-c2ccc3ncnc(Nc4c(F)ccc(NS(=O)(=O)c5cccc(Cl)c5Cl)c4F)c3n2)c2ccccc12)C1CCOC1` (stereo not drawn) [Example 500], for which the IC50 (HCT116 cells, class symbol) was 1000 to 10000 nM. Same read-out and setting: with `Cc1c(F)cccc1S(=O)(=O)Nc1ccc(F)c(Nc2ncnc3ccc(-n4cnc5c(N(CCO)CCO)cccc54)nc23)c1F` [Example 351] the figure was under 500 nM; with `CS(=O)(=O)c1cccc2c1ncn2-c1ccc2ncnc(Nc3c(F)ccc(NS(=O)(=O)c4cccc(Cl)c4Cl)c3F)c2n1` [Example 521], 1000 to 10000 nM; with `CN(C)C1CCN(S(=O)(=O)c2cn(-c3ccc4ncnc(Nc5c(F)ccc(NS(=O)(=O)c6cccc(Cl)c6Cl)c5F)c4n3)c3ccccc23)CC1` [Ex 387], under 500 nM.

For the setting “HCT116 cells, class symbol”, `CN(C)CCNS(=O)(=O)c1cn(-c2ccc3ncnc(Nc4c(F)ccc(NS(=O)(=O)c5cccc(Cl)c5Cl)c4F)c3n2)c2ccc(F)cc12` [Example 443] displayed an IC50 of under 500 nM. Still for that read-out and setting: then `Cc1c(F)cccc1S(=O)(=O)Nc1ccc(F)c(Nc2ncnc3ccc(-n4cc(S(=O)(=O)N5CCN(CCO)CC5)c5ccccc54)nc23)c1F` [Ex 397], with under 500 nM; and `O=C1CCCN1c1cn(-c2ccc3ncnc(Nc4c(F)ccc(NS(=O)(=O)c5cccc(Cl)c5Cl)c4F)c3n2)c2ccccc12` [Example 511], with under 500 nM. Under “HCT116 cells, Table 5”, `Cc1c(Cl)cccc1S(=O)(=O)Nc1cccc(Nc2ncnc3ccc(-n4nc(C(=O)N5CCOCC5)c5ccccc54)nc23)c1F` [Example 241] registered an IC50 of 1000 to 10000 nM. The “HCT116 pERK Ymin %” value (lowest value of the curve, HCT116, Table 5) was −0.9%. As to `O=S(=O)(Nc1ccc(F)c(Nc2ncnc3ccc(-n4cc(S(=O)(=O)N5CCN(CCOCCO)CC5)c5ccccc54)nc23)c1F)c1cccc(Cl)c1Cl` [Ex 378], the IC50 (HCT116 cells, class symbol) is under 500 nM. For the compound `O=S(=O)(Nc1ccc(F)c(Nc2ncnc3ccc(-n4cnc5c(CN6CCC6)cccc54)nc23)c1F)c1ccccc1Cl` [Ex 218], the “HCT116 pERK Ymin %” value (HCT116 cells, Ymin in brackets) is −6%. Under setting [1], this compound yielded a concentration for half-maximal inhibition (IC50) of 500 to 1000 nM. Where the note is “HCT116 cells, class symbol”, `Cc1cc(N)ccc1S(=O)(=O)Nc1ccc(F)c(Nc2ncnc3ccc(-n4cnc5c(N)cccc54)nc23)c1F` [Example 369] had an IC50 of 500 to 1000 nM. With `O=C1CCCCN1c1cn(-c2ccc3ncnc(Nc4c(F)ccc(NS(=O)(=O)c5cccc(Cl)c5Cl)c4F)c3n2)c2ccccc12` [Example 532], the IC50 (HCT116 cells, class symbol) lay in the range of 1000 to 10000 nM. Compound `CC(C)(C#N)c1cccc2c1ncn2-c1ccc2ncnc(Nc3c(F)ccc(NS(=O)(=O)c4cccc(Cl)c4Cl)c3F)c2n1` [Example 520] had a concentration for half-maximal inhibition (IC50) (HCT116 cells, class symbol) of under 500 nM. `O=S(=O)(Nc1ccc(F)c(Nc2ncnc3ccc(-n4cc(CO)c5ccccc54)nc23)c1F)c1ccccc1Cl` [Ex 88]: the “HCT116 pERK Ymin %” value (HCT116 cells, Ymin in brackets) was −6%. Further, the IC50 under setting [1] was in the range of 1000 to 10000 nM. The compound `CS(=O)(=O)c1cn(-c2ccc3ncnc(Nc4c(F)ccc(NS(=O)(=O)c5cccc(Cl)c5Cl)c4F)c3n2)c2ccccc12` [Ex 381] yielded an IC50 (HCT116 cells, class symbol) of under 500 nM. Consider `CC(c1cccc2c1ncn2-c1ccc2ncnc(Nc3c(F)ccc(NS(=O)(=O)c4ccccc4Cl)c3F)c2n1)N1CCOCC1` (stereo not drawn) [Example 237], for which the “HCT116 pERK Ymin %” value (HCT116 cells, Ymin in brackets) amounted to 2.8%. The IC50 under setting [1] lay in the range of 500 to 1000 nM. Turning to `CNCC(C)(C)S(=O)(=O)c1cn(-c2ccc3ncnc(Nc4c(F)ccc(NS(=O)(=O)c5cccc(Cl)c5Cl)c4F)c3n2)c2ccccc12` [Example 461], the IC50 (HCT116 cells, class symbol) is under 500 nM.
